Columns and labels:
healthy male volunteers = test: Clinical pharmacology drug interaction study with short-acting nitrates (Example 5); assay type: in vivo, human
Experimental: This study was a randomized, double-blind, placebo-controlled, two-way crossover design clinical pharmacology drug interaction study that evaluated the hemodynamic effects of concomitant administration of a selective PDE5 inhibitor Study Drug (i.e., the compound of structural formula (I)) and short-acting nitrates on healthy male volunteers. In this study, the subjects received either the Study Drug at a dose of 10 mg or a placebo, daily for seven days. On the sixth or seventh day, the subjects received sublingual nitroglycerin (0.4 mg) while supine on a tilt table. The nitroglycerin was administered 3 hours after Study Drug dosing, and all subjects kept the nitroglycerin tablet under their tongue until it completely dissolved. The subjects were tilted to 70° head-up every 5 minutes for a total of 30 minutes with measurement of blood pressure and heart rate. There were no discontinuations among the twenty-two healthy male subjects (ages 19 to 60 years old) that entered this study.

[1] = system: male erectile dysfunction; test: Combined clinical studies, IIEF erectile function domain; assay type: in vivo, human
[2] = 10 mg daily for seven days, sublingual nitroglycerin 0.4 mg, preliminary analysis
[3] = 10 mg daily for seven days, preliminary analysis

## CN1CC(=O)N2[C@H](c3ccc4c(c3)OCO4)c3[nH]c4ccccc4c3C[C@@H]2C1=O [Compound 5, (6R-trans)-6-(1,3-benzodioxol-5-yl)-2,3,6,7,12,12a-hexahydro-2-methylpyrazino[1′,2′:1,6]pyrido[3,4-b]indole-1,4-dione]
Healthy male volunteers; [2]
  serious adverse events: no serious adverse events
  tolerability: well tolerated
Healthy male volunteers; [3]
  changes in laboratory safety assessments or 12-lead ECGs: no Study Drug-associated changes in laboratory safety assessments or 12-lead ECGs
  most common adverse events: headache, dyspepsia, and back pain
Healthy male volunteers; 10 mg daily, nitroglycerin 0.4 mg 3 hours after dosing, tilt table
  effects on mean systolic blood pressure and on mean maximal nitroglycerin-induced decrease in systolic blood pressure: minimal effects
Healthy male volunteers; human clinical studies, administered in conjunction with organic nitrates
  impact on systolic blood pressure: minimal impact on systolic blood pressure
[1]; combined results from clinical studies
  treatment of male erectile dysfunction: effectively treats male erectile dysfunction
[1]; unit dose 2 mg
  IIEF erectile function domain (change from baseline), Mean ± SD: 3.9 ± 6.1
[1]; unit dose 5 mg
  IIEF erectile function domain (change from baseline), Mean ± SD: 6.6 ± 7.1
[1]; unit dose 10 mg
  IIEF erectile function domain (change from baseline), Mean ± SD: 7.9 ± 6.7
[1]; unit dose 25 mg
  IIEF erectile function domain (change from baseline), Mean ± SD: 9.4 ± 7.0
[1]; unit dose 50 mg
  IIEF erectile function domain (change from baseline), Mean ± SD: 9.8 ± 5.5
[1]; unit dose 100 mg
  IIEF erectile function domain (change from baseline), Mean ± SD: 8.4 ± 6.1
